# pEC50, pIC50: −log10 of the molar value.
# Legend:
# Rattus norvegicus [1] = species: Rattus norvegicus; experiment: Agonist activity tested in [Ca2+] -influx assay by using neonatal rat cultured spinal sensory neurons; type: functional
# Rattus norvegicus [2] = species: Rattus norvegicus; experiment: Antagonist activity tested in [Ca2+] -influx assay by using neonatal rat cultured spinal sensory neurons; type: functional
Structure (SMILES),pEC50 (Rattus norvegicus [1]),pIC50 (Rattus norvegicus [2])
Oc1ccc(C2CCCN2/C(S)=N/CCc2ccccc2)cc1O (stereo not given),< 4.00,< 4.00
COc1cc(CCC2CCCN2/C(S)=N/CCc2ccccc2)ccc1O (stereo not given),< 4.00,5.52

# Other lines, results leading:
pEC50 (Rattus norvegicus [1]),pIC50 (Rattus norvegicus [2]),Structure (SMILES)
< 4.00,< 4.00,COc1cc(C2CCCN2/C(S)=N/CCc2ccccc2)ccc1O (stereo not given)
< 4.00,4.26,Oc1ccc(CCC2CCCN2/C(S)=N/CCc2ccccc2)cc1O (stereo not given)
< 4.00,6.22,Oc1cc2c(cc1O)CN(C(=S)NCCc1ccc(Cl)cc1)CCC2 [CAPSAZEPINE]

# — ChEMBL document CHEMBL1136259, “Synthesis of 2-substituted-pyrrolidinethiourea derivatives and their antagonist effect on vanilloid receptor” (Bioorg Med Chem Lett, 2003)
